Data reported in US8778975B2, “Helicobacter pylori eradicating agent having inhibitory activity on gastric acid secretion” (Link Geonomics, Inc., priority 2006, dated 2014).
≈ marks a conversion by molar mass, not a printed value. Where two headings read alike, the source gives them in different places. Values belong to the compound of their own block, whether it stands above or below them.

Tests used:
[1] = Stability test in acidic hydrochloric acid solution (pH 2), residual ratio by HPLC; format: physicochemical; settings: for Residual ratio at pH 2: pH 2 HCl, 37° C.; for Stability in acid (residual ratio at pH = 2: %): Table 8 summary, time not stated
Experimental: A test for the stability of thioether compounds (hereinafter, referred to SH-form) and sulfoxide compounds (hereinafter, referred to SO-form) at pH 2.0 was carried out. (Method) Each of the specimens produced in Examples 1 to 3 and Reference Examples 6 to 8 (sulfinyl products of Examples 1 to 3) was maintained in a solution adjusted to pH 2 with 0.5 or 1.0 mmol/L HCl (37° C.) for a predetermined time period. Subsequently, the solution was adjusted to pH 8 with triethylamine, and then an HPLC analysis was performed to calculate the residual ratio.

[2] = test system: Helicobacter pylori bacteria (ATCC 43504); assay: Antiulcer action and bacteria eradicating action in Helicobacter pylori-infected Mongolian gerbils; format: in vivo; settings: for Number of Bacteria (average) (log CFU): gastric mucosa
Experimental: Mongolian gerbils were experimentally infected with Helicobacter pylori bacteria, and the antiulcer action and the Helicobacter pylori bacteria eradicating action of the compounds of the present invention were tested.
Male Mongolian gerbils (30 to 40 g), five animals in each group, were orally inoculated with Helicobacter pylori bacteria (ATCC 43504) at 1.6×10^7 CFU/0.5 ml/mouse, and bred for one week, and then drug was administered two times a day for two weeks. Thereafter, the […] were bred for three weeks, and then the rats were fasted for 18 hours and subjected to abdominal section, followed by autopsy. The severity of gastric ulcer, the number of Helicobacter pylori bacteria in the gastric mucosa, and the antibody titer were measured.

[3] = test system: Helicobacter pylori standard strain ATCC 43504; assay: Antibacterial potency test (MIC), Columbia agar medium, Pharmacological Test Example 1; format: cell-based
Experimental: A test was conducted to see whether there is a difference in the anti-Helicobacter pylori activity depending on the number of carbon atoms of the linear alkyl group for a substituent at the 4-position of the pyridine ring.
For the bacterium Helicobacter pylori, a standard strain ATCC 43504 was used to perform in vitro tests in Columbia agar medium. Each of the specimens was dissolved in a 1% DMSO solution, and the bacteria were cultured at 37° C. and pH 7.0 for 3 days. On the 4th day, the minimum growth inhibitory concentration (MIC, μg/ml) was determined.

gastric acid secretion = assay: Gastric acid secretion inhibiting action, pylorus ligation in rats; format: in vivo, SD rats; settings: 30 mg/kg to the duodenum, 4 hours after pylorus ligation, average
Experimental: The gastric acid secretion inhibiting action of the compounds of the present invention was tested. A group of five animals of male SD rats (about 200 g) were used, and the medicaments were respectively dissolved in 0.5% CMC and were all administered to the duodenum respectively at 30 mg/kg. The rats were fasted overnight from the day before the administration of the test substance to the point of administration, and pylorus ligation was performed.

[4] = test system: Helicobacter pylori standard strains ATCC 43504, ATCC 43629, ATCC 43570 and clinically separated strains; assay: Anti-Helicobacter pylori activity (MIC), standard and clinically separated strains, Pharmacological Test Example 2; format: cell-based
Experimental: For the bacterium Helicobacter pylori, standard strains ATCC 43504, ATCC 43629 and ATCC 43570 were used to perform in vitro tests in Columbia agar medium. The bacteria were cultured at 37° C. and pH 7.0 for 3 days. On the 4th day, the minimum growth inhibitory concentration (MIC, μg/ml) was determined. Each of the specimens was dissolved in a 1% DMSO solution. Furthermore, amoxicillin and clarithromycin were used as control drugs of antibacterial substance. Further, the compound described in the article of Thomas C. Kuehler (J. Med.

[5] = Helicobacter pylori, ATCC43504, Table 8, amount of administration (mg) 30, read-out: HP eradication based on Mongolian gerbil infection model: Eradication rate (%)
[6] = ATCC43504, 72 h, ATCC 43504, 37° C., pH 7.0, 3 days, read-out: MIC
[7] = ATCC43504, Table 8 summary, strain not stated, read-out: Anti-HP activity (MIC: μg/mL)
[8] = Clinically separated strain PT1045482
[9] = Clinically separated strain PT1045483
[10] = Clinically separated strain PT1045484
[11] = 30 mg/kg, two times a day for two weeks
[12] = Helicobacter pylori, ATCC43504, 336 h, 30 mg/kg, two times a day for two weeks, read-out: Eradication rate (%)

- Residual ratio at pH 2 ([1]; 0 min): 100%
- Residual ratio at pH 2 ([1]; 30 min): 0%
- Residual ratio at pH 2 ([1]; 2 hours): 0%
- Stability in acid (residual ratio at pH = 2: %) [1]: 0%
- MIC [3, 6]: 3 µg/mL (≈ 8.39 µM)
- MIC [3, 7]: 3 µg/mL (≈ 8.39 µM)
Compound: CCCCCOc1ccnc(C[S+]([O-])c2nc3ccccc3[nH]2)c1C (racemic) [Reference Example 6, (±)-2-[(4-n-pentyloxy-3-methylpyridin-2-yl)-methylsulfinyl]-1H-benzimidazole]
- responders at 30 mg/kg [2, 5]: 0%

- Residual ratio at pH 2 ([1]; 0 min): 100%
- Residual ratio at pH 2 ([1]; 30 min): 0%
- Residual ratio at pH 2 ([1]; 2 hours): 0%
- Stability in acid (residual ratio at pH = 2: %) [1]: 0%
- MIC [3, 6]: 3 µg/mL (≈ 8.08 µM)
- MIC [3, 7]: 3 µg/mL (≈ 8.08 µM)
Compound: CCCCCCOc1ccnc(C[S+]([O-])c2nc3ccccc3[nH]2)c1C (racemic) [Reference Example 7, (±)-2-[(4-n-hexyloxy-3-methylpyridin-2-yl)-methylsulfinyl]-1H-benzimidazole]
- responders at 30 mg/kg [2, 5]: 0%

- Residual ratio at pH 2 ([1]; 0 min): 100%
- Residual ratio at pH 2 ([1]; 30 min): 0%
- Residual ratio at pH 2 ([1]; 2 hours): 0%
- Stability in acid (residual ratio at pH = 2: %) [1]: 0%
- MIC [3, 6]: 3 µg/mL (≈ 7.78 µM)
- MIC [3, 7]: 3 µg/mL (≈ 7.78 µM)
Compound: CCCCCCCOc1ccnc(C[S+]([O-])c2nc3ccccc3[nH]2)c1C (racemic) [Reference Example 8, (±)-2-[(4-n-heptyloxy-3-methylpyridin-2-yl)-methylsulfinyl]-1H-benzimidazole]
- responders at 30 mg/kg [2, 5]: 0%

Compound: CN/C(=N/CCSCc1nc[nH]c1C)NC#N [Cimetidine]
- Gastric acid secretion inhibiting action: Amount of gastric acid (gastric acid secretion): 54%
- Gastric acid secretion inhibiting action: Amount of gastric acid secretion (gastric acid secretion): 74%
- Gastric acid secretion inhibiting action: Total acidity (gastric acid secretion): 41%

Compound: Cc1c(OCC(C)C)ccnc1CSc1nc2ccccc2[nH]1 [Comparative Example 1, 2-[(4-isobutoxy-3-methylpyridin-2-yl)methylthio]-1H-benzimidazole]
- MIC [4, 8]: 3 mg/L (≈ 9.16 µM)
- MIC [4, 9]: 3 mg/L (≈ 9.16 µM)
- MIC [4, 10]: 1 mg/L (≈ 3.05 µM)
- MIC ([4]; Standard strain ATCC 43504): 3 mg/L (≈ 9.16 µM)
- MIC ([4]; Standard strain ATCC 43570): 1 mg/L (≈ 3.05 µM)
- MIC ([4]; Standard strain ATCC 43629): 1 mg/L (≈ 3.05 µM)
- Antibody titer (average) ([2]; 30 mg/kg): 0.49
- Number of Bacteria (average) (log CFU) ([2]; 30 mg/kg): 6.3 log CFU
- Number of Ulcers discovered [2, 11]: 5/5
- responders at 30 mg/kg [2, 12]: 0%

Compound: CC(C)COc1ccnc(CSc2nc3ccccc3[nH]2)c1 [Comparative Example 2, 2-[(4-isobutoxy-pyridin-2-yl)methylthio]-1H-benzimidazole]
- MIC [4, 8]: 10 mg/L (≈ 31.9 µM)
- MIC [4, 9]: 10 mg/L (≈ 31.9 µM)
- MIC [4, 10]: 10 mg/L (≈ 31.9 µM)
- MIC ([4]; Standard strain ATCC 43504): 10 mg/L (≈ 31.9 µM)
- MIC ([4]; Standard strain ATCC 43570): 5 mg/L (≈ 16 µM)
- MIC ([4]; Standard strain ATCC 43629): 10 mg/L (≈ 31.9 µM)
- Antibody titer (average) ([2]; 30 mg/kg): 0.55
- Number of Bacteria (average) (log CFU) ([2]; 30 mg/kg): 5.9 log CFU
- Number of Ulcers discovered [2, 11]: 5/5
- responders at 30 mg/kg [2, 12]: 0%

Compound: CCCCOc1ccnc(CSc2nc3ccccc3[nH]2)c1C [Example 4, 2-[(4-n-butoxy-3-methylpyridin-2-yl)-methylthio]-1H-benzimidazole]
- MIC [3, 6]: 0.3 µg/mL (≈ 0.916 µM)

- MIC [3, 6]: 0.3 µg/mL (≈ 0.782 µM)
Compound: CCCCCCCCOc1ccnc(CSc2nc3ccccc3[nH]2)c1C [Example 5, 2-[(4-n-octyloxy-3-methylpyridin-2-yl)-methylthio]-1H-benzimidazole]

- Residual ratio at pH 2 ([1]; 0 min): 100%
- Residual ratio at pH 2 ([1]; 30 min): 0%
- Residual ratio at pH 2 ([1]; 2 hours): 0%
- Stability in acid (residual ratio at pH = 2: %) [1]: 0%
- MIC [3, 7]: 16 µg/mL (≈ 43.3 µM)
Compound: Cc1c(OCC(F)(F)F)ccnc1C[S+]([O-])c1nc2ccccc2[nH]1 (stereo not shown) [LAZ, Lansoprazole]
- responders at 30 mg/kg [2, 5]: 0%

Compound: COc1ccc2[nH]c([S+]([O-])Cc3ncc(C)c(OC)c3C)nc2c1 (stereo not shown) [OMZ, Omeprazole]
- Stability in acid (residual ratio at pH = 2: %) [1]: 0%
- Antibody titer (average) ([2]; 10 mg/kg): 0.52
- Number of Bacteria (average) (log CFU) ([2]; 10 mg/kg): 6.0 log CFU
- Number of Ulcers discovered ([2]; 10 mg/kg, two times a day for two weeks): 5/5
- responders at 10 mg/kg ([2]; Helicobacter pylori, ATCC43504, 336 h, 10 mg/kg, two times a day for two weeks, read-out: Eradication rate (%)): 0%
- responders at 30 mg/kg [2, 5]: 0%
- MIC [3, 7]: 128 µg/mL (≈ 371 µM)

- Stability in acid (residual ratio at pH = 2: %) [1]: 0%
- MIC [3, 7]: 8 µg/mL (≈ 22.3 µM)
Compound: COCCCOc1ccnc(C[S+]([O-])c2nc3ccccc3[nH]2)c1C (stereo not shown) [RAZ, Rabeprazole]
- responders at 30 mg/kg [2, 5]: 0%

- MIC [3, 6]: 3 µg/mL (≈ 10.5 µM)
Compound: COc1ccnc(CSc2nc3ccccc3[nH]2)c1C [Reference Example 1, 2-[(4-methoxy-3-methylpyridin-2-yl)-methylthio]-1H-benzimidazole]

- MIC [3, 6]: 1 µg/mL (≈ 3.34 µM)
Compound: CCOc1ccnc(CSc2nc3ccccc3[nH]2)c1C [Reference Example 2, 2-[(4-ethoxy-3-methylpyridin-2-yl)-methylthio]-1H-benzimidazole]

- MIC [3, 6]: 1 µg/mL (≈ 3.19 µM)
Compound: CCCOc1ccnc(CSc2nc3ccccc3[nH]2)c1C [Reference Example 3, 2-[(4-n-propoxy-3-methylpyridin-2-yl)-methylthio]-1H-benzimidazole]

- MIC [3, 6]: 1 µg/mL (≈ 2.52 µM)
Compound: CCCCCCCCCOc1ccnc(CSc2nc3ccccc3[nH]2)c1C [Reference Example 4, 2-[(4-n-nonyloxy-3-methylpyridin-2-yl)-methylthio]-1H-benzimidazole]

- MIC [3, 6]: 3 µg/mL (≈ 7.29 µM)
Compound: CCCCCCCCCCOc1ccnc(CSc2nc3ccccc3[nH]2)c1C [Reference Example 5, 2-[(4-n-decyloxy-3-methylpyridin-2-yl)-methylthio]-1H-benzimidazole]
